Several values for one entry are separate records, joined by “and”; a condition that tells them apart may be missing. Equal values may be shown once.
Molecular target: T1, Parkin ligase (Homo sapiens, UniProt O60260)
T1 sequence (O60260 1-465): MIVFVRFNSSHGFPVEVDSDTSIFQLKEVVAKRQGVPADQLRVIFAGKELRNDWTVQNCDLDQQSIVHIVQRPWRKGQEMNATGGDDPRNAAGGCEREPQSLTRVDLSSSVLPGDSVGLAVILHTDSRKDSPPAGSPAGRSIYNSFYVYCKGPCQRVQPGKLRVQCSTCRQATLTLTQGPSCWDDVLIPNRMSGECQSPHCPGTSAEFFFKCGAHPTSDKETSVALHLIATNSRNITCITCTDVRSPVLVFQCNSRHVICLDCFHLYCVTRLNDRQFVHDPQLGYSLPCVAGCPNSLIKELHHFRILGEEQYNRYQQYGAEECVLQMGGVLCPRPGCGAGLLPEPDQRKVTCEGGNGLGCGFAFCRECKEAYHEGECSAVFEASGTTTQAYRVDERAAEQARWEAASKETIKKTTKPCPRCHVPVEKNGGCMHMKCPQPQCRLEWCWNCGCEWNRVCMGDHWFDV
Test: Activity-Based Probe Assay using Ubiquitin vinyl sulfone probe (TR-FRET)
Assay type: biochemical
Conditions: heat activated Parkin, HA-Ub-VS probe, activation EC50; read-out: Probe Assay EC50 (μM) [Example 2]
How it was run: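 Heat-activated His-Parkin (5 min, 58 °C; 40 nM) was preincubated 15 min with compound, then reacted 60 min at 22 °C with 70 nM HA-Ub-VS in 50 mM HEPES pH 8.5, 150 mM NaCl, 0.01% Tween 20, 0.1% BSA. Probe labelling was read by anti-His-Eu/anti-HA-XL665 TR-FRET (665/615 ratio). % activation was normalized to DMSO and 100 nM control activator, then fitted with a four-parameter curve (Bottom=0, Top=100).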

EC50 | SMILES
3 µM | O=C(Nc1nc(NC(=O)c2ccncc2)n(-c2ccccc2)n1)c1ccncc1 [Compound 33]
2 µM | Cc1ccccc1C(=O)Nc1nc(NC(=O)c2ccncc2)nn1-c1ccccc1 [Compound 34]
3 µM | Cc1ccccc1C(=O)Nc1nc(NC(=O)c2ccccc2C)n(-c2ccc(C#N)cc2)n1 [Compound 35]
3 µM and 4 µM | Cc1ccccc1C(=O)Nc1nc(NC(=O)c2ccccc2C)n(-c2cccc(Cl)c2)n1 [Compound 36]
4 µM | COc1ccc(C(=O)Nc2nc(NC(=O)c3ccc(OC)cc3)n(-c3ccccc3)n2)cc1 [Compound 37]
5 µM | Cc1cccc(-n2nc(NC(=O)c3ccccc3C)nc2NC(=O)c2ccccc2C)c1 [Compound 38]
4 µM | Cc1ccccc1C(=O)Nc1nc(NC(=O)c2ccccc2C)n(-c2cccc(F)c2)n1 [Compound 39]
1 µM | O=C(Nc1nc(NC(=O)c2cccnc2)n(-c2ccccc2)n1)c1cccnc1 [Compound 40]
2 µM | O=C(Nc1nc(NC(=O)c2ccccn2)n(-c2ccccc2)n1)c1ccccn1 [Compound 41]
3 µM | Cc1ccccc1C(=O)Nc1nc(NC(=O)c2ccccc2C)n(-c2ccc(N3CCCCC3)cc2)n1 [Compound 44]
6 µM | Cc1ccccc1C(=O)Nc1nc(NC(=O)c2ccccc2C)n(-c2ccc(F)cc2F)n1 [Compound 46]
2 µM | Cc1ccccc1C(=O)Nc1nc(NCc2ccccc2)nn1-c1ccc(C(F)(F)F)cc1 [Compound 102]
3 µM | Cc1ccnc(-c2nc(NC(=O)c3ccccc3C)n(-c3ccccc3)n2)c1 [Compound 124]

Second part, the molecule before the results:

SMILES | EC50
C#Cc1ccc(C(=O)Nc2nc(NC(=O)c3cccc(N=[N+]=[N-])c3)n(-c3ccccc3)n2)cc1 [Compound 2] | 4 µM
Cc1ccccc1C(=O)Nc1nc(NC(=O)c2cccnc2)nn1-c1ccccc1 [Compound 6] | 2 µM
Cc1ccccc1C(=O)Nc1nc(NC(=O)c2ccno2)n(-c2ccccc2)n1 [Compound 7] | 12 µM
Cc1ccccc1C(=O)Nc1nc(NC(=O)c2ccccn2)nn1-c1ccccc1 [Compound 16] | 3 µM
Cc1ccccc1C(=O)Nc1nc(NC(=O)c2cnccn2)n(-c2ccccc2)n1 [Compound 17] | 10 µM
Cc1ccccc1C(=O)Nc1nc(NC(=O)C2CCCN2)nn1-c1ccccc1 (stereo not drawn) [Compound 20] | 2 µM
Cc1ccc(C(=O)Nc2nc(NC(=O)c3ccc(C)cc3)n(-c3ccccc3)n2)cc1 [Compound 21] | 5 µM
COc1ccccc1C(=O)Nc1nc(NC(=O)c2ccccc2OC)n(-c2ccccc2)n1 [Compound 23] | 10 µM
Cc1ccccc1C(=O)Nc1nc(NC(=O)c2ccccc2C)n(-c2ccc(F)c(F)c2)n1 [Compound 24] | 3 µM
Cc1ccccc1C(=O)Nc1nc(NC(=O)c2ccccc2C)n(-c2ccc(C(F)(F)F)cc2)n1 [Compound 25] | 0.9 µM and 2 µM
Cc1ccccc1C(=O)Nc1nc(NC(=O)c2ccccc2C)n(-c2ccccc2Cl)n1 [Compound 26] | 6 µM
Cc1ccc(-n2nc(NC(=O)c3ccccc3C)nc2NC(=O)c2ccccc2C)cc1 [Compound 31] | 4 µM
Cc1ccccc1C(=O)Nc1nc(NC(=O)c2ccccc2C)n(-c2ccccc2F)n1 [Compound 32] | 9 µM
Cc1ccccc1C(=O)Nc1nc(NC(=O)c2ccccc2C)n(-c2ccc(OC(F)(F)F)cc2)n1 [Compound 42, N,N′-(1-(4-(trifluoromethoxy)phenyl)-1H-1,2,4-triazole-3,5-diyl)bis(2-methylbenzamide)] | 1 µM and 3 µM

From US10889553B2, “Asymmetric triazole benzamide derivatives and the compositions and methods of treatment regarding the same” (NysnoBio Ireland DAC, priority 2017, dated 2021)
